Measured values published in patent publication US6900193B1, “Structural modification of 19-norprogesterone I: 17-α-substituted-11-β-substituted-4-aryl and 21-substituted 19-norpregnadienedione as new antiprogestational agents” (The United States of America as represented by the …, priority 1996, dated 2005).
Entries after “also recorded” stand apart in the source; their conditions may differ. Where two headings read alike, the source gives them in different places.

What was measured:
[1] = molecular target: T1, human isoform A progesterone receptor (Homo sapiens, UniProt P06401); test: Relative binding affinity, human isoform A progesterone receptor; settings: for BINDING AFFINITY Progester, figure in ( ): relative binding affinity of the human isoform A progesterone receptor: Table 2, figure in parentheses
T1 sequence (P06401 1-769 isoform P06401-2): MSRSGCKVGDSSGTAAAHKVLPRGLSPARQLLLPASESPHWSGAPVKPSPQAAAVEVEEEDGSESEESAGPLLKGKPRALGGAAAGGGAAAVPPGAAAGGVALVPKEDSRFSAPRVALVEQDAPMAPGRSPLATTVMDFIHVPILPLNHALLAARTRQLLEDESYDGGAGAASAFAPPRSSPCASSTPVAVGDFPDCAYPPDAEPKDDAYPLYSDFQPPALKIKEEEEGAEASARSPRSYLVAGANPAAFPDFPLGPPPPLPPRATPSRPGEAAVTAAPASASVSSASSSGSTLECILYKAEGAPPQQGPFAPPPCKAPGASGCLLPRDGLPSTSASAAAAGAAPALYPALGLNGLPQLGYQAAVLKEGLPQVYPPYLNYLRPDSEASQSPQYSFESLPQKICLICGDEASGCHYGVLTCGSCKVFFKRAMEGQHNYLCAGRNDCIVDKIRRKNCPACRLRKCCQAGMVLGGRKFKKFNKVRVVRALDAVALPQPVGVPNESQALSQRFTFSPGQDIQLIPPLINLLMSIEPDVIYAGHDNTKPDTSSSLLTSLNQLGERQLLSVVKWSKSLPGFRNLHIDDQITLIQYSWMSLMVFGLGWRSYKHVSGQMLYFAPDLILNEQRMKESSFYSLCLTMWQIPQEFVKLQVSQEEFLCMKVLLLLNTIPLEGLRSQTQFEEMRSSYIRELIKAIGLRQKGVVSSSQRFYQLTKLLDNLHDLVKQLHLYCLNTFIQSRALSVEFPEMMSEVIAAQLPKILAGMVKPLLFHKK

[2] = Lability to base under reverse-phase HPLC conditions; format: physicochemical; settings: MeOH/H2O/Et3N reverse-phase conditions; converts to compound 8, also at pH 7.0
Experimental: Under nitrogen, a mixture of the crude ethoxyethylidenedioxy compound (18, 0.56 g., 1.11 mmol), 0.2 M NaOAc (3 mL, […]) in methanol (30 mL) was heated to reflux. Monitoring by TLC (5% acetone/CH2Cl2) indicated a complete reaction in 3.5 hours. The methanol was removed in vacuo under a stream of nitrogen, the residue diluted with water (˜50 mL) and extracted with CH2Cl2 (3×). The organic fractions were combined, washed with H2O (2×) and brine (1×), dried over Na2SO4, filtered and concentrated in vacuo to give 0.56 g of the crude 21-ol, 17α-acetate (41) as a foam. Purification of this material via flash chromatography (7.5% acetone/CH2Cl2) followed by trituration with ether/pentane gave 0.32 g of the target compound, 21-OH, 17α-acetate as an off-white solid in […]; m.p.=205-210° C. The NMR indicated this product contains 5.3% of the 17α-OH, 21-OAc (8) isomer as a contaminant. […] This transesterification occurs at an appreciate rate even when the solvent system is buffered at pH 7.0 with phosphoric acid. The purity of the acetate mixture (8 and 41) was ascertained at >99% by normal phase HPLC analysis (Waters Associates μPorasil Silica using CH3CN/CH2Cl2 (40:60) with a flow rate of 2 mL/min at λ=302 nm). […] The presence of the 17α-OH, 21-OAc isomer (8) to the extent of 5.3% could be detected by the appearance of two doublets, one at 4.88 and the other at 5.11, both with J=18.3 Hz.

[3] = test system: implantation; settings: man; cited from earlier work
[4] = test system: Cushing's syndrome; settings: cited from earlier work
[5] = test system: estrogen-insensitive T47Dco human breast cancer cells; settings: Horwitz 1985; cited from earlier work
[6] = test system: early stages of pregnancy; settings: administered during the early stages of pregnancy; cited from earlier work
[7] = test system: implantation; settings: rat; cited from earlier work
[8] = test system: ovulation; settings: Dao, et al.; cited from earlier work
[9] = test system: implantation; settings: guinea pig; cited from earlier work
[10] = test system: ovulation; settings: Baulieu, et al.; cited from earlier work
[11] = test system: ovulation; test: Antiovulatory test; format: in vivo, rat; settings: for Antiovulatory MED100: oral, rat, single dose at noon on day of proestrus
Experimental: Antiovulatory Test […] female rats of the Sprague-Dawley strain weighing 200 to 250 g were maintained under standard laboratory conditions, 14 hours of light and 10 hours of darkness each day. Vaginal washings were obtained daily and evaluated microscopically to establish the estrous cycle of each animal. […] Each dose group consisted of eight rats and one group served as the vehicle control. Animals were dosed at noon on the day of proestrus and sacrificed 24 hours later when ova can usually be visualized in the distended ampulla of the oviduct using a dissecting microscope. The oviducts were excised, an incision made in the distended ampulla and the ova teased out in a drop of water on a microscope slide so that the number shed could be counted. Historically, control animals shed between 12 and 14 ova during each estrous cycle.

[12] = test system: pregnancy (number and condition of conceptuses); test: Postcoital test; format: in vivo, rat; settings: oral; for postcoital contraceptive activity relative to the standard, in words: days 0-3 of gestation, versus 69B; for Postcoital MED100: rat, days 0-3
[13] = in vivo
[14] = test system: follicular development, ovulation, endometrial maturation; test: Single oral dose in human subjects (unpublished data); format: in vivo

COCC(=O)C1(OC(C)=O)CCC2C3CCC4=CC(=O)CCC4=C3C(c3ccc(N4CCCCC4)cc3)CC21C (stereo not drawn) [Compound 123a, 17α-Acetoxy-1113-[4-(N-piperidino)phenyl]-21-methoxy-19-norpregna-4,9-diene-3,20-dione]
BINDING AFFINITY Progester, figure in ( ): relative binding affinity of the human isoform A progesterone receptor [1]: 140

CC(=O)O[C@]1(C(=O)CO)CCC2C3CCC4=CC(=O)CCC4=C3C(c3ccc(N(C)C)cc3)C[C@@]21C (stereo partly drawn) [Compound 41, 17α-acetoxy-21-hydroxy-11β-[4-(N,N-dimethylamino)phenyl]-19-norpregna-4,9-diene-3,20-dione]
stability to base [2]: extremely labile to base

CC#C[C@]1(O)CC[C@H]2[C@@H]3CCC4=CC(=O)CCC4=C3[C@@H](c3ccc(N(C)C)cc3)C[C@@]21C [mifepristone]
prevention of implantation [3]: prevent implantation
treatment of Cushing's syndrome ([4]; Nieman, et al. 1985): successfully used
antiglucocorticoid activity ([4]; in vivo): very significant antiglucocorticoid activity
growth inhibition of T47Dco human breast cancer cells [5]: growth-inhibitory properties
antiprogestational/contragestative effect [6]: effective antiprogestational/contragestative agent
prevention of implantation [7]: prevent implantation
inhibition of ovulation in the rat [8]: inhibit ovulation
prevention of implantation [9]: prevent implantation
effect on ovulation in human subjects [10]: affect ovulation

CC(=O)O[C@]1(C(C)=O)CC[C@H]2[C@@H]3CCC4=CC(=O)CCC4=C3[C@@H](c3ccc(N4CCCCC4)cc3)C[C@@]21C [Compound 71, 17α-Acetoxy-11β-[4(N-Piperidino)phenyl]-19-norpregna-4,9-diene-3,20-dione]
BINDING AFFINITY Progester, figure in ( ): relative binding affinity of the human isoform A progesterone receptor [1]: 203
Antiovulatory MED100 [11]: >16 mg
antiovulatory activity relative to the standard ([11]; percent of the activity of 69B): about 5%
dose level at which not fully active, antiovulatory ([11]; versus 69B): > 16 times the MED100 for the standard
postcoital contraceptive activity relative to the standard, in words [12]: about four times the postcoital contraceptive activity of the standard; also recorded: four times as potent as the standard
Postcoital MED100 [12]: 0.5 mg/day

COCC(=O)[C@@]1(OC)CC[C@H]2[C@@H]3CCC4=CC(=O)CCC4=C3[C@@H](c3ccc(N(C)C)cc3)C[C@@]21C [Compound 113a, 17α,21-Dimethoxy-11β-[4-(N,N-dimethylamino)phenyl]-19-norpregna-4,9-diene-3,20-dione]
binding affinity for the human progesterone receptor (isoform A), in words [1]: high binding affinity
BINDING AFFINITY Progester, figure in ( ): relative binding affinity of the human isoform A progesterone receptor [1]: 237
postcoital contraceptive activity relative to the standard, in words [12]: about half as effective as compound 69B

CC(=O)O[C@]1(C(C)=O)CC[C@H]2[C@@H]3CCC4=CC(=O)CCC4=C3[C@@H](c3ccc(N(C)C)cc3)C[C@@]21C [Compound 69B, 17α-acetoxy-11β-(4-N,N-dimethylaminophenyl)-19-norpregna-4,9-diene-3,20-dione, reference compound]
blood levels following oral administration [13]: Higher blood levels
BINDING AFFINITY Progester, figure in ( ): relative binding affinity of the human isoform A progesterone receptor [1]: 234
Antiovulatory MED100 [11]: 1 mg
inhibition of ovulation in the rat [8]: inhibit ovulation
Postcoital MED100 [12]: 2 mg/day
effect in human subjects following a single oral dose [14]: affect both follicular development and ovulation as well as endometrial maturation

CC(=O)OCC(=O)[C@@]1(OC(C)=O)CC[C@H]2[C@@H]3CCC4=CC(=O)CCC4=C3[C@@H](c3ccc(C(C)=O)cc3)C[C@@]21C [Compound 106b, 17α,21-Diacetoxy-11β-(4-acetylphenyl)19-norpregna-4,9-diene-3,20-dione]
BINDING AFFINITY Progester, figure in ( ): relative binding affinity of the human isoform A progesterone receptor [1]: 172
